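Test compounds were applied to cells in 96-well plates for 48 hours at 5 doses. GI50: concentration for 50% inhibition of growth.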 Calls of active or inactive are those of the source. No stated cut-off is given here; in the data, active = GI50 up to about 1.1 µM and inactive = higher.
Columns and labels:
Test in all cases: growth of human tumour cells (NCI), 48 h
[1] = test system: HT-29
[2] = test system: TK-10
[3] = test system: KM12
[4] = test system: OVCAR-8
[5] = test system: SN12C
[6] = test system: UO-31
[7] = test system: HCT-15
[8] = test system: HL-60
[9] = test system: OVCAR-3
[10] = test system: UACC-257
[11] = test system: SNB-19
[12] = test system: K562
[13] = test system: SW-620
[14] = test system: CCRF-CEM
[15] = test system: HCT-116
[16] = test system: A549
[17] = test system: A498
[18] = test system: EKVX
[19] = test system: LXFL 529
[20] = test system: SK-MEL-28
[21] = test system: OVCAR-4
[22] = test system: M19-MEL
[23] = test system: RPMI-8226
[24] = test system: SK-OV-3
[25] = test system: DMS-273
[26] = test system: OVCAR-5
[27] = test system: SF-268
[28] = test system: ACHN
[29] = test system: M14
[30] = test system: HOP-62
[31] = test system: RXF 393
[32] = test system: MOLT-4
[33] = test system: IGROV-1
[34] = test system: SK-MEL-5
[35] = test system: COLO 205
[36] = test system: 786-0
[37] = test system: SR
[38] = test system: SNB-75
[39] = test system: NCI-H460
[40] = test system: NCI-H23
[41] = test system: CAKI-1
[42] = test system: Malme-3M
[43] = test system: HCC 2998
[44] = test system: LOX IMVI
[45] = test system: SF-295
[46] = test system: UACC-62
[47] = test system: NCI-H522
[48] = test system: U-251
[49] = test system: DLD-1
[50] = test system: SK-MEL-2
[51] = test system: DMS-114

CCOC(=O)[C@H]1CSC[C@@H](C(=O)OC)N1
GI50 [1]: > 100 µM (inactive)
GI50 [2]: > 100 µM (inactive)
GI50 [3]: > 100 µM (inactive)
GI50 [4]: > 100 µM (inactive)
GI50 [5]: > 100 µM (inactive)
GI50 [6]: > 100 µM (inactive)
GI50 [7]: > 100 µM
GI50 [8]: > 100 µM (inactive)
GI50 [9]: > 100 µM (inactive)
GI50 [10]: > 100 µM (inactive)
GI50 [11]: > 100 µM (inactive)
GI50 [12]: > 100 µM (inactive)
GI50 [13]: > 100 µM (inactive)
GI50 [14]: > 100 µM (inactive)
GI50 [15]: > 100 µM (inactive)
GI50 [16]: > 100 µM (inactive)
GI50 [17]: > 100 µM (inactive)
GI50 [18]: > 100 µM (inactive)
GI50 [19]: > 100 µM (inactive)
GI50 [20]: > 100 µM (inactive)
GI50 [21]: > 100 µM (inactive)
GI50 [22]: > 100 µM (inactive)
GI50 [23]: > 100 µM (inactive)
GI50 [24]: > 100 µM (inactive)
GI50 [25]: > 100 µM (inactive)
GI50 [26]: > 100 µM (inactive)
GI50 [27]: > 100 µM (inactive)
GI50 [28]: > 100 µM (inactive)
GI50 [29]: > 100 µM (inactive)
GI50 [30]: > 100 µM (inactive)
GI50 [31]: > 100 µM (inactive)
GI50 [32]: > 100 µM (inactive)
GI50 [33]: > 100 µM (inactive)
GI50 [34]: > 100 µM (inactive)
GI50 [35]: > 100 µM (inactive)
GI50 [36]: > 100 µM (inactive)
GI50 [37]: > 100 µM (inactive)
GI50 [38]: 23.1 µM (inactive)
GI50 [39]: > 100 µM (inactive)
GI50 [40]: > 100 µM (inactive)
GI50 [41]: > 100 µM (inactive)
GI50 [42]: > 100 µM (inactive)
GI50 [43]: > 100 µM (inactive)
GI50 [44]: > 100 µM (inactive)
GI50 [45]: > 100 µM (inactive)
GI50 [46]: > 100 µM (inactive)
GI50 [47]: > 100 µM (inactive)
GI50 [48]: > 100 µM (inactive)
GI50 [49]: > 100 µM (inactive)
GI50 [50]: > 100 µM (inactive)
GI50 [51]: > 100 µM (inactive)
